Laboratory results reported in patent publication US10597314B2, “Fatty acid biodispersant and methods of use” (General Electric Company, priority 2013, dated 2020).

Tests used:
biofilms = test: Applicant's testing of the amount of cis-2-decenoic acid needed for sufficient activity; assay type: cell-based; conditions: relative to the Article's 1.0 nM to 10 mM
Source text: An article titled A Fatty Acid Messenger Is Responsible for Inducing Dispersion in Microbial Biofilms, published in March 2009 in the Journal of Bacteriology (“Article”) is incorporated by reference herein in its entirety. The Article discloses that cis-2-decenoic acid may be used to disperse biofilms.

Microbial Biofilms = conditions: as stated in the Article; cited from earlier work

SMILES	actual amount needed for sufficient activity (biofilms)	amount needed for activity (biofilm dispersion) (Microbial Biofilms)
CCCCCCC/C=C\C(=O)O [cis-2-decenoic acid]	several times more than that	
CCCCCCC/C=C/C(=O)O [trans-2-decenoic acid]		in the mM range
